According to patent publication US10010560B2, “Small molecule HSP70 inhibitors” (THE TRUSTEES OF THE UNIVERSITY OF PENNSYLVANIA, priority 2014, dated 2018):

Columns and labels:
[1] = tested on: ubiquitin; experiment: Western blot for ubiquitin in detergent fractions; type: cell-based, human; conditions: 451 Lu cells, 24 h, detergent insoluble fraction
From the text: FIGS. 4A-4L illustrate that PET-16 impairs proteostasis. […] There is a general absence of obvious nuclei in PET-16 treated tumor cells. […] FIGS. 4D and 4E are gels of whole-cell extracts (WCE) prepared from human melanoma A875 (D) or 451 Lu (E) cells treated with DMSO, PES or PET-16 that were immunoprecipitated using an anti-HSP70 antibody. The excised band of about 70 kDa shown in the Coomassie gel is HSP70, as confirmed by liquid chromatography—tandem mass spectrometry analysis. FIGS. 4F-4I are western blots of cell lines were treated with DMSO, PES or PET-16 for 24 h and immunoblotted for the indicated proteins. FIG. 4J are western blots of indicated melanomas pretreated with DMSO, PES or PET-16, followed by treatment with IL-6. Cell extracts were immunoblotted for the proteins indicated. Inhibition of IL-6 induced STAT3 and STAT1 phosphorylation by PET-16. FIG. 4K is a western blot analysis indicating altered processing of cathepsin L from the larger precursor form to the smaller mature form in the indicated cells following PET-16 treatment for 24 h. FIG. 4L is a western blot of the human melanoma 451 Lu cells treated with DMSO, PES or PET-16 for 24 h. Cells were harvested in 1% NP40-containing lysis buffer, fractionated into detergent-soluble and detergent-insoluble preparations, and assayed by western blot for ubiquitin. […]

[2] = tested on: melanoma tumor cell lines; experiment: Cellular ATP levels (AlamarBlue assay) in tumor cells; type: cell-based, human
From the text: FIGS. 5A-5F illustrates that PET-16 leads to loss of mitochondrial protein Cyclophilin D and impairs bioenergetics in tumor cells. FIGS. 5A-5D are western blots of HSP70, which is present at mitochondria of tumor H1299 cells but not in normal tissue, such as liver. The constitutively expressed 70 kDa family members, HSC70 and GRP75, are present in mitochondria of normal cells. Equal amounts of whole cell (WC)-, cytosolic (cyto)-, and mitochondrial (mito)-extracts prepared from cell lines H1299 (A, C) and MIA PaCa-2 (B) or normal (liver) cells (C, D) were examined by western blot analysis for the presence of the proteins indicated. […] Decreases of AlamarBlue® fluorescence, indicative of mitochondrial damage, are noted in PET-16-treated tumor cells (melanoma tumor cell line WM88 (-), melanoma tumor cell line WM3000 (×), melanoma tumor cell line WM852 (*), human melanoma 451 Lu cells (●), and melanoma tumor cell line WM989 (|), but not normal cells (nontransformed human fibroblasts (IMR90-♦) and primary melanocytes (▪)). Values are normalized to the vehicle-treated cells. Error bars represent standard deviation (s.d.) of four independent experiments.

[3] = tested on: human melanoma (A875) cells; experiment: Viability of A875 melanoma cells versus IMR90 fibroblasts; type: cell-based; conditions: 10 μM, 24 h, A875 vs IMR90
Experimental: FIGS. 2A-2D illustrate the cytotoxicity of PET-16 to human tumor cells and its inhibition on E. coli growth. FIG. 2A is a line graph with data obtained from MTT assays of human melanoma cell lines treated with the indicated concentrations of PES or PET-16 for 72 h. The corresponding cell survival is normalized to vehicle (DMSO) treatment. Average and standard deviation (s.d.) from three independent experiments are shown. FIG. 2B are bar graphs of human melanoma (A875) cells and nontransformed human (IMR90) fibroblasts that were treated with DMSO, 10 μM PES or 10 μM PET-16 for 24 h. […] FIG. 2C is a line graph illustrating the growth of E. coli DH5α treated with different concentrations of PES or PET-16 for 6 h at 43° C. Error bars represent the s.d. of four independent experiments. FIG. 2D is a bar graph illustrating the growth of E. coli DH5α treated with DMSO, 30 μM PET-16 or 30 μM TPP for 6 h at 43° C. Error bars represent the s.d. of four independent experiments.

C(#C[P+](c1ccccc1)(c1ccccc1)c1ccccc1)c1ccccc1.[Br-] [PET-16, triphenyl(phenylethynyl)phosphonium bromide]
ubiquitinated polypeptides [1]: accumulation
AlamarBlue fluorescence (mitochondrial function) [2]: clear decrease
cytotoxicity tumor versus nontransformed cells [3]: preferentially cytotoxic for tumor cells
